Data taken from patent US5326902A, “Oxyalkyne compounds, pharmaceutical compositions containing them and processes for preparing such compounds and compositions” (Gruenenthal GmbH, priority 1992, dated 1994).

Experiments:
[1] = target: T1, 5-lipoxygenase (Rattus norvegicus, UniProt P12527); assay: Inhibition of 5-lipoxygenase in RBL-1-cells; format: cell-based; settings: 20 μM [14C]-arachidonic acid, 20 μM calcium ionophore A 23 187, 10 minutes
T1 construct: endogenous in cells; host or cells: RBL-1 cells (rat basophilic leukemia)
T1 sequence (P12527 1-673): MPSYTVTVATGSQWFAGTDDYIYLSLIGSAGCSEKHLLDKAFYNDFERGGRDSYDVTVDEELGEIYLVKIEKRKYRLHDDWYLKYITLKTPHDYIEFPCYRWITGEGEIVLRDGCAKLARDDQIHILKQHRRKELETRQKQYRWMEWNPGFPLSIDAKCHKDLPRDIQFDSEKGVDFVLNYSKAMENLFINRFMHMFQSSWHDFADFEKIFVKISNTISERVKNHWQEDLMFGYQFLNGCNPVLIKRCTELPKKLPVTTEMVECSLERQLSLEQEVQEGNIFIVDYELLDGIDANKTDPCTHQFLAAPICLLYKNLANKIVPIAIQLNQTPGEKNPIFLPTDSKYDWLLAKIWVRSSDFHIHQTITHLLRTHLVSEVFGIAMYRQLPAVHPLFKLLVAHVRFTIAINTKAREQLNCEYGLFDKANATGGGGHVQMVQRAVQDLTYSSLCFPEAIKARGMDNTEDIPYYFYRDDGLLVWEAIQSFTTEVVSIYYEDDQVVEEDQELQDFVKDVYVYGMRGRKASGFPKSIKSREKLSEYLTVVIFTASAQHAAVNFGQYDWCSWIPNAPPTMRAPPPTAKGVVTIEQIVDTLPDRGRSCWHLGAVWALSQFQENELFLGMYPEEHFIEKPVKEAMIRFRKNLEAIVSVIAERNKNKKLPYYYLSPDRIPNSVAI
Method: To determine the inhibition of 5-lipoxygenase, rat basophilic leukemia cells (RBL-1-cells) were cultured in vitro, harvested by centrifugation, washed with 50 mM potassium phosphate buffer of pH 7.4, and then suspended in this buffer at 1×10^7 cells/ml. Indomethacin (10 μM) and calcium chloride (2 mM) were added to 1 ml portions of this suspension, and then the mixture was incubated either in the presence of a compound according to the invention in a concentration range of from 0,1 μM to 100 μM or in the presence of a solvent (ethanol and/or dimethyl sulfoxide) for 3 minutes and thereafter with 20 μM of [^14 C]-arachidonic acid and 20 μM of calcium ionophore A 23 187 for 10 minutes. The reaction was stopped by adding 20 μl of glacial acetic acid, and then the mixture was extracted with ethyl acetate to isolate the metabolites of arachidonic acid formed by the enzymatic action of 5-lipoxygenase. These were separated by thin layer chromatography using a solvent mixture known to be suitable for lipoxygenase products [c.f. Jakschik et al., Biochem. Biophys. Res. Commun. 102, 624 (1981)].
The distribution of radioactivity among the different metabolites of arachidonic acid was measured using a TLC Linear Analyzer. By correlating the percentage amounts of the products formed under the action of 5-lipoxygenase (5HETE, isomers of LTB4) in the absence as well as in the presence of different concentrations of compounds according to the invention, the IC50 -values, i.e. the concentrations which cause a 50% inhibition of 5-lipoxygenase, were determined graphically from semilogarithmic plots.

[2] = target: T1, 5-lipoxygenase; assay: Inhibition of Cell-free 5-lipoxygenase from RBL-1-cells (polarographic, 10,000 × g supernatant); format: biochemical; settings: 10,000 × g supernatant of homogenized RBL-1-cells; arachidonic acid 75 μM; 35° C.; calculated IC50
Method: Cell-free 5-lipoxygenase was polarographically measured from 10,000 × g supernatant of homogenized rat basophilic leucemia cells (M. Haurand & L. Flohe in Biol. Chem. Hoppe-Seyler 369, 133 to 142 (1988)). After preincubation of the 10,000 × g supernatant with arachidonic acid (75 μM), ATP (adenosine triphosphate; 4 mM), reduced glutathione (4 mM), and either a compound according to the invention (0.1 to 100 μM) or a solvent (ethanol and/or dimethyl sulfoxide) at 35° C. for 5 minutes, the lipoxygenase reaction was initiated by addition of calcium chloride (3 mM) and simultaneously recorded.
The activity of 5-lipoxygenase was determined from the difference in the pO2 -decrease before and after addition of calcium chloride. The evaluation included the initial rate of the reaction after the lag-phase as well as the duration of the lag-phase. In the concentration range of from 3 to 50 μM, the test substances induced lag-phases between 20 and 60 seconds.

[3] = target: T2, 12-lipoxygenase (Homo sapiens, UniProt P18054); assay: Inhibition of 12-lipoxygenase in homogenates of human thrombocytes; format: biochemical; settings: arachidonic acid 40 μM, indomethacin 10 μM, 25° C., read-out: IC50-value of the inhibitory action on 12-Lipoxygenase
T2 sequence (P18054 1-663): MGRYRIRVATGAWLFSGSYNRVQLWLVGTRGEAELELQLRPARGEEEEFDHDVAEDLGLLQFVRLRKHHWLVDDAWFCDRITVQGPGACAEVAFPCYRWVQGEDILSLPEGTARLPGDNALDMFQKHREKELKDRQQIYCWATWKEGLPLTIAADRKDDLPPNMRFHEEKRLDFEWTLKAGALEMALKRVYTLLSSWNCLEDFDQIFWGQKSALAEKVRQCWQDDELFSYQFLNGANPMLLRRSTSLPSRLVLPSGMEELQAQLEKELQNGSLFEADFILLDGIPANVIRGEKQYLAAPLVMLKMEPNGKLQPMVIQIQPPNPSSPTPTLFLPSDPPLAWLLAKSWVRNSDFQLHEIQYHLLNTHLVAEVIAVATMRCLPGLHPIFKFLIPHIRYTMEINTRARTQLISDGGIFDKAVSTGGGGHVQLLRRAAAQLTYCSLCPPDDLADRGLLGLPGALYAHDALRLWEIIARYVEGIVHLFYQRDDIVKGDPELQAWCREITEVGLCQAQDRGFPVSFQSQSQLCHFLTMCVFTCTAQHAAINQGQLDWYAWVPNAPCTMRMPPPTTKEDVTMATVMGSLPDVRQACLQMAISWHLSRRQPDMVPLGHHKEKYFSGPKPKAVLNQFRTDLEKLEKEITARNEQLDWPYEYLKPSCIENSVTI
Method: Human thrombocytes were suspended at 3×10^9 cells/ml, fumigated with nitrogen, and sonicated with ultrasonic energy while cooling in ice water. After centrifugation at 10.000 × g for 15 minutes, reduced glutathione (3 mM) was added. 1 ml portions of the 10,000 × g supernatant were incubated with a compound according to the invention or with ethanol at 25° C. for 4 minutes and then with 1-^14 C-labelled arachidonic acid (40 μM) for 7.5 minutes. In addition, indomethacin (10 μM) was added to each sample. The reaction was stopped by adding acetic acid, and then the metabolites of arachidonic acid were extracted with ethyl acetate and analyzed by thin layer chromatography. The distribution of the […] fractions was measured using a TLC-linear analyzer. The IC50 -values were determined graphically from semilogarithmic plots. The IC50 -value of the inhibitory action on 12-Lipoxygenase was 1 μmolar when the compound prepared according to Example 1 was used.

IC50 [1]: 5 µM | IC50 [2]: 5 µM | IC50 [3]: 1 µM
SMILES: CC(=O)N(O)Cc1ccc(C(O)C#Cc2ccccc2)cc1 (racemic) [Example 1, N-Hydroxy-N-[4-[1-hydroxy-3-phenyl-prop-2-yn-1-yl]benzyl]acetamide]
